The text below walks through data of paper PMC2813745, “A novel inhibitor of the PI3K/Akt pathway based on the structure of inositol 1,3,4,5,6-pentakisphosphate” (British Journal of Cancer, 2010).

In one data set the target is AKT3 (PKBγ) (Homo sapiens, UniProt Q9Y243). Kind of data set: SelectScreen kinase profiling: AKT3. Format: biochemical. The conditions noted are these: [ATP] 100 µM. How it is done:
(§1) Effect of the indicated compounds on the activity of various kinases was assessed by SelectScreen Kinase Profiling Service (Invitrogen-Life Technologies, Paisley, UK). Assays were performed using 1 μM of the tested compounds and ATP concentration as indicated in the corresponding tables. In the case of […] a screen using 10 μM of the compound was also carried out, as indicated in the corresponding table.

A further data set has as its target AMPK A1/B1/G1 (Homo sapiens, UniProt Q13131). Kind of data set: SelectScreen kinase profiling: AMPK A1/B1/G1. Format: biochemical. Particulars: 1 µM compound; [ATP] 50 µM. The protocol:
as §1

The next data set has as its target BTK (Homo sapiens, UniProt Q06187). In words: SelectScreen kinase profiling: BTK. Particulars: [ATP] 25 µM. Format: biochemical. The protocol: as §1
The target of a further data set is CDK5/p25 (Homo sapiens, UniProt Q00535). Kind of data set: SelectScreen kinase profiling: CDK5/p25. The class given is biochemical. The conditions noted are these: [ATP] 10 µM. The protocol: as §1
CDK5/p25, sequence (Q00535 whole entry): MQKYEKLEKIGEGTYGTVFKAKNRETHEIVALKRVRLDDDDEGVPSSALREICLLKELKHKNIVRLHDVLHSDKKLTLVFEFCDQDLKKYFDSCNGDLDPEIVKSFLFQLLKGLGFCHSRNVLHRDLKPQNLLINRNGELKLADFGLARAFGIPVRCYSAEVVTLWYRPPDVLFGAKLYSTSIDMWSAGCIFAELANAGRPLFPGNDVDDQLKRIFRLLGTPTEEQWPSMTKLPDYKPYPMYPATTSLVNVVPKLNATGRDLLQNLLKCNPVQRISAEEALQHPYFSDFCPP
CDK5/p25, sequence (Q15078 99-307 partner limits assumed): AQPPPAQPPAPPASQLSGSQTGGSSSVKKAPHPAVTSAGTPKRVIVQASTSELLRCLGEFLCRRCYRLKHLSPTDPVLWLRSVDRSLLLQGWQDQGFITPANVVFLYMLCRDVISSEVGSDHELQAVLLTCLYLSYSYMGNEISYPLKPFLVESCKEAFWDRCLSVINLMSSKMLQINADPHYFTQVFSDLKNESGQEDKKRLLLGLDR
The target of another data set is CHEK1 (CHK1) (Homo sapiens, UniProt O14757). Kind of data set: SelectScreen kinase profiling: CHEK1. Particulars: [ATP] 50 µM. Format: biochemical. The protocol: as §1
The target of the next data set is T1, PDK1 (Homo sapiens, UniProt O15530).
T1 sequence (O15530 1-556): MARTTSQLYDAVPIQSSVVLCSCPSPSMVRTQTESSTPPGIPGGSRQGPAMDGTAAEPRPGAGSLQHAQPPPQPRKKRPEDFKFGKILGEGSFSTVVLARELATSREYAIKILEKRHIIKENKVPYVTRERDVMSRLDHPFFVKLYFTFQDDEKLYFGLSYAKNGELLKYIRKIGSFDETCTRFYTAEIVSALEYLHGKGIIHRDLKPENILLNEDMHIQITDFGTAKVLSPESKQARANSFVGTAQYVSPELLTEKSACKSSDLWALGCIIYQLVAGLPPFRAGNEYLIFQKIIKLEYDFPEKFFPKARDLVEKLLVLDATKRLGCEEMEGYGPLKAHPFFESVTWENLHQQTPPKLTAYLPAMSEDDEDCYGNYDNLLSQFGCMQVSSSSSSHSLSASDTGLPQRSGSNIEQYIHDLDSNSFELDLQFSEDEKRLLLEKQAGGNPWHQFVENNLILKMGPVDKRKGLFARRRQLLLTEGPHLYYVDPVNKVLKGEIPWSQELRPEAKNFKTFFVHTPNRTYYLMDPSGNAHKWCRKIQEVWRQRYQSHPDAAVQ
In words: SelectScreen kinase profiling: PDK1. Particulars: for IC50: 10-point titration, [ATP] 100 μM. The class given is biochemical. The protocol: as §1

The next data set concerns the target PRKACA (PKA) (Homo sapiens, UniProt P17612). In words: SelectScreen kinase profiling: PRKACA. The class given is biochemical. The conditions noted are these: [ATP] 5 µM. How it is done: as §1
A further data set addresses ROCK1 (Homo sapiens, UniProt Q13464). In words: SelectScreen kinase profiling: ROCK1. Particulars: [ATP] 5 µM. Format: biochemical. How it is done: as §1
The target of another data set is RPS6KB1 (p70S6K) (Homo sapiens, UniProt P23443). Kind of data set: SelectScreen kinase profiling: RPS6KB1. Format: biochemical. The conditions noted are these: [ATP] 10 µM. The protocol: as §1
RPS6KB1 (p70S6K), sequence (P23443 whole entry): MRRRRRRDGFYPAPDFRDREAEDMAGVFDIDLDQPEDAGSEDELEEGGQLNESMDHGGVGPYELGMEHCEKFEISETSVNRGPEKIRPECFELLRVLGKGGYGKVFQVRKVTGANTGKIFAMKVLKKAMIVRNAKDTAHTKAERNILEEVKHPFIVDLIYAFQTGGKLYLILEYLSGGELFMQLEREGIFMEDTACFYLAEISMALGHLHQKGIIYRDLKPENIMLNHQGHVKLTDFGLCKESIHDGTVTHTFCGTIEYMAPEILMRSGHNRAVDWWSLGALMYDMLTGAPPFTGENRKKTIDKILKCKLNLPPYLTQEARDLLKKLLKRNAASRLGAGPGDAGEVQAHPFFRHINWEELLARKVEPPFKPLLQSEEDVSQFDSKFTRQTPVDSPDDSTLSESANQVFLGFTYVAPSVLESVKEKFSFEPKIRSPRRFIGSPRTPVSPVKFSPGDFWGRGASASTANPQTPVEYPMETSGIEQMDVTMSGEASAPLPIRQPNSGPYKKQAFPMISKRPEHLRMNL
The target of the next data set is CDK7/cyclin H/MNAT1 (Homo sapiens, UniProt P50613). In words: SelectScreen kinase profiling: CDK7/cyclin H/MNAT1. Format: biochemical. The conditions noted are these: [ATP] 150 µM. The protocol: as §1
The subject of the next data set is PC3 xenografts. In words: Anti-tumour activity assay on PC3 xenografts. The class given is in vivo, nude athymic CD-1 nu/nu mice. The conditions noted are these: for tumour growth: 14 consecutive days. How it is done:
Male nude athymic CD-1 nu/nu mice (8-weeks old) were obtained from Harlan (San Pietro al Natisone, Italy) and maintained under specific pathogen-free conditions with food and water provided ad libitum. The general health status of the animals was monitored daily. Procedure involving animals and their care were conducted in conformity with the institutional guidelines that are in compliance with national and international laws and policies.
(§2) Exponentially growing PC3 cells were harvested, washed twice and resuspended in PBS at a concentration of 2.5 × 10^7 cells ml^−1. A suspension of 5 × 10^6 PC3 cells was injected subcutaneously (s.c.) into the left flank of the recipient mice. When tumours reached a size of ∼70 mm^3 (approximately 15 days after tumour cell implant), mice were divided into seven groups (n=7). […] Control mice were treated with water in an equal volume. The diameters of s.c. growing tumours were measured with a caliper twice a week and the experiment was ended at day 28 after the implantation.
The volume of s.c. growing tumours was calculated by the formula: Tumour weight (mg)=(length × width^2)/2. Differences in s.c tumour growth between the treatment groups were evaluated with a one-way ANOVA followed by Fisher's test using the StatView statistical package (SAS Institute, Cary, NC, USA). The percentage of tumour growth was calculated as T/C%=(RTV-treated animals/RTV-control animals) × 100, where RTV was the mean relative tumour volume calculated as RTV=Vt/V0. Vt was the tumour volume on the day of measurement and V0 was the tumour volume at the beginning of the treatment. The percentage of tumour weight inhibition (TWI%) was calculated using the formula: TWI%=100–T/C%. The log cell kill (LCK) was calculated using the formula: LCK=T−C/3.32 × Td, where T−C is the tumour growth delay calculated as the difference in median time (in days) required for the tumours in the treatment (T) and control group (C) to reach a predetermined size (i.e., 1000 mg). Td is the tumour volume doubling time in days, determined in the exponential growth phase of the control group from a best-fit straight line. […]
The inositol compounds (12.5–25–50 mg kg^−1 day^−1) and vehicle (water) were given daily by intraperitoneal (i.p.) injections for 14 consecutive days (days 15–28). Tumour size was assessed twice weekly. (A, B) Tumour growth in 2-O-Bn-InsP5-treated mice (A) and InsP5-treated mice (B) compared with control group measured for the duration of the experiment. Results are expressed as mean±s.e. […] The percentage of tumour weight inhibition (TWI%), the tumour growth delay (T−C) and the log cell kill (LCK) were calculated as described in the MATERIALS AND METHODS section. […] Phosphorylation of Akt at its residues Ser473 and Thr308 was assessed by using specific antibodies. […]

The next data set is described as follows: Toxicity in mice. Format: in vivo, nude CD-1 mice. Particulars: for body weight of the treated animals / toxicity: 12.5, 25, 50 mg kg^−1 day^−1 i.p., 14 consecutive days; for toxic effect: single dose 750 mg kg^−1 i.p. The protocol: Each group consisted of 2–3 mice. Body weight, deaths and any other sign of toxicity and changes in behaviour (such as motility, eating and drinking habits) were recorded.
as §2
The inositol compounds (12.5–25–50 mg kg^−1 day^−1) and vehicle (water) were given daily by intraperitoneal (i.p.) injections for 14 consecutive days (days 15–28). Tumour size was assessed twice weekly. (A, B) Tumour growth in 2-O-Bn-InsP5-treated mice (A) and InsP5-treated mice (B) compared with control group measured for the duration of the experiment. Results are expressed as mean±s.e. (C) Top: Table showing all P-values for the indicated doses of 2-O-Bn-InsP5 compared to controls at the indicated days of treatment (NS=not significant). Bottom: In vivo anti-tumour activity parameters. The percentage of tumour weight inhibition (TWI%), the tumour growth delay (T−C) and the log cell kill (LCK) were calculated as described in the MATERIALS AND METHODS section. The highest inhibition of tumour volume is reported. […] Tumours were excised 24 h after treatment. Phosphorylation of Akt at its residues Ser473 and Thr308 was assessed by using specific antibodies. Membranes were then stripped and re-probed with an anti-Akt antibody.

Setting [1] is: 1 µM compound, [ATP] 100 µM, single point.

AMPK A1/B1/G1, sequence (Q13131 whole entry): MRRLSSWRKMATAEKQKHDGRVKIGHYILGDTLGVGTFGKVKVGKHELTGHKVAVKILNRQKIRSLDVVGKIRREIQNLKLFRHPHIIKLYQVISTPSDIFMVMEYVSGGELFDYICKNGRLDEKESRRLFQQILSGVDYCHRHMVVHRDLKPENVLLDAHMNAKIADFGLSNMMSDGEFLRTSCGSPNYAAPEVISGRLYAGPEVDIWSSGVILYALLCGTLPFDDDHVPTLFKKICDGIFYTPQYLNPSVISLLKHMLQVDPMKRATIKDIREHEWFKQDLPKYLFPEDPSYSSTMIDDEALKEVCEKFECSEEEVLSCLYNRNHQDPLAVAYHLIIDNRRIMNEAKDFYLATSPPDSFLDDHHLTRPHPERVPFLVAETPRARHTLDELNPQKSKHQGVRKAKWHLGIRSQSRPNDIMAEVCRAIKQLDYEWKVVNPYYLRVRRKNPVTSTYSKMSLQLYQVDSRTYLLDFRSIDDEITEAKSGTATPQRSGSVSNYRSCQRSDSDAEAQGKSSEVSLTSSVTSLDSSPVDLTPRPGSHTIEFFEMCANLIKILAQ
AMPK A1/B1/G1, sequence (Q9Y478 whole entry partner): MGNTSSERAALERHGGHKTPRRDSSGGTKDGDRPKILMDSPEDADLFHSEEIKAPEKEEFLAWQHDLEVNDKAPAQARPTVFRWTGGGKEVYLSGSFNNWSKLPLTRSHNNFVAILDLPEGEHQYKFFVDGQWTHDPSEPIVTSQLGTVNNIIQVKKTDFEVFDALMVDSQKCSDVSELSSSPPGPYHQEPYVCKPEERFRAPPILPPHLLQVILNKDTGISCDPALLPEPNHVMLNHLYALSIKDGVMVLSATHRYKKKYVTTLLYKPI
AMPK A1/B1/G1, sequence (P54619 whole entry partner): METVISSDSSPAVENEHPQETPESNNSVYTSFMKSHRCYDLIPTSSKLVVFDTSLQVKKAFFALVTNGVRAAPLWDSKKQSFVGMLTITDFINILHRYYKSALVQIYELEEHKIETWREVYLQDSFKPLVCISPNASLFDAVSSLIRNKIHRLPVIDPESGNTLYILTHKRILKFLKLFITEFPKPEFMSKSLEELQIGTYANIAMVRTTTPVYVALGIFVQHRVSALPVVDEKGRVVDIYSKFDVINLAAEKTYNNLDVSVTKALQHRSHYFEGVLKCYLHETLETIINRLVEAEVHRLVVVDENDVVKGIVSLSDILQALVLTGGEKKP
ROCK1, sequence (Q13464 whole entry): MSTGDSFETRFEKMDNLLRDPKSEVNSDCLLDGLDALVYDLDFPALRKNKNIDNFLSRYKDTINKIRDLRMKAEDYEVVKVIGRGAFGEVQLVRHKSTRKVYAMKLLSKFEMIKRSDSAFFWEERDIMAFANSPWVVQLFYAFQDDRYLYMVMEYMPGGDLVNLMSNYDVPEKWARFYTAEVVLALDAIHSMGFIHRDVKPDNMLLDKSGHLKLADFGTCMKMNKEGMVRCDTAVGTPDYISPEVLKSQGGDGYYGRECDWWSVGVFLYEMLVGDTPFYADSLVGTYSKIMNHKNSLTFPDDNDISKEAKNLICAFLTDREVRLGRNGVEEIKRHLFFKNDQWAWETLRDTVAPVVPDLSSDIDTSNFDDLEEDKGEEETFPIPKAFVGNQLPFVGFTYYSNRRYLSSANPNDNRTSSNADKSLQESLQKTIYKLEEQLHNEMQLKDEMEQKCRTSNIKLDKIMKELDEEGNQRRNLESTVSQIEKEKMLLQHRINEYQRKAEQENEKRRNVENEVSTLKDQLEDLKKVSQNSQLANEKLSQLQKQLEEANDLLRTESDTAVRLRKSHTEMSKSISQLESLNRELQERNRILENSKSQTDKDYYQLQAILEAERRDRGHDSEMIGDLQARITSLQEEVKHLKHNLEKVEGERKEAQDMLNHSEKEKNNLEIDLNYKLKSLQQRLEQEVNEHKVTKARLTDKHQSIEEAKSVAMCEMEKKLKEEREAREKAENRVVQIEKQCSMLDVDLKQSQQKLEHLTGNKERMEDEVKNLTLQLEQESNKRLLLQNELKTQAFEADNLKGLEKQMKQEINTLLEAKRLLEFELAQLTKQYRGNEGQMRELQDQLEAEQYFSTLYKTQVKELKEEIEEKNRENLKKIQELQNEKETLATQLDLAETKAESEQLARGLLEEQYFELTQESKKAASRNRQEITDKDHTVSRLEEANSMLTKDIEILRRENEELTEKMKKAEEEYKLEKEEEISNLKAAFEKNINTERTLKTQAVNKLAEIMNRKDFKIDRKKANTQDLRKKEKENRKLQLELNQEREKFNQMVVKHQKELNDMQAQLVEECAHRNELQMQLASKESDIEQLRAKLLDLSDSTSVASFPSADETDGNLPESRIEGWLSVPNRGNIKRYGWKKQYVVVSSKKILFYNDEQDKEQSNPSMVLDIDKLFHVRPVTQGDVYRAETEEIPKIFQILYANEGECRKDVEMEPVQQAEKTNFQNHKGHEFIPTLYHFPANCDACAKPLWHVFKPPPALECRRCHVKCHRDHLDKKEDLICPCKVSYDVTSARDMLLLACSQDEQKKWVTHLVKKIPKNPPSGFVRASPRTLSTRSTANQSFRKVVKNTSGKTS
BTK, sequence (Q06187 whole entry): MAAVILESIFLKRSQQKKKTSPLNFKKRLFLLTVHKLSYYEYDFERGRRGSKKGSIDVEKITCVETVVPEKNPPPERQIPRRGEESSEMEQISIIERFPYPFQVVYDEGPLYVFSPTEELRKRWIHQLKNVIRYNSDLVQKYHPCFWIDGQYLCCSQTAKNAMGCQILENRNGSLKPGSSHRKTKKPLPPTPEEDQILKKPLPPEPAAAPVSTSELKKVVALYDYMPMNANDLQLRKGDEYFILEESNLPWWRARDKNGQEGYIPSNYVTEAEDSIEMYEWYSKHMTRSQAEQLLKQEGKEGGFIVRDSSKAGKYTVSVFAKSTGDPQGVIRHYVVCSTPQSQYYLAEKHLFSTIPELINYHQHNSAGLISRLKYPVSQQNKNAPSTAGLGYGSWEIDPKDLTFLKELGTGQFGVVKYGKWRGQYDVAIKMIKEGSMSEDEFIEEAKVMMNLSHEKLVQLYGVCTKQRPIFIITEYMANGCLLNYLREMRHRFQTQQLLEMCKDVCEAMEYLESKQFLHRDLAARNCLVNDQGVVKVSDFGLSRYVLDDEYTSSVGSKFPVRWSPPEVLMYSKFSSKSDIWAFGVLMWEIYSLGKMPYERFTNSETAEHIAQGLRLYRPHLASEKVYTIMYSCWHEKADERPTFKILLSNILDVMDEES
AKT3 (PKBγ), sequence (Q9Y243 whole entry): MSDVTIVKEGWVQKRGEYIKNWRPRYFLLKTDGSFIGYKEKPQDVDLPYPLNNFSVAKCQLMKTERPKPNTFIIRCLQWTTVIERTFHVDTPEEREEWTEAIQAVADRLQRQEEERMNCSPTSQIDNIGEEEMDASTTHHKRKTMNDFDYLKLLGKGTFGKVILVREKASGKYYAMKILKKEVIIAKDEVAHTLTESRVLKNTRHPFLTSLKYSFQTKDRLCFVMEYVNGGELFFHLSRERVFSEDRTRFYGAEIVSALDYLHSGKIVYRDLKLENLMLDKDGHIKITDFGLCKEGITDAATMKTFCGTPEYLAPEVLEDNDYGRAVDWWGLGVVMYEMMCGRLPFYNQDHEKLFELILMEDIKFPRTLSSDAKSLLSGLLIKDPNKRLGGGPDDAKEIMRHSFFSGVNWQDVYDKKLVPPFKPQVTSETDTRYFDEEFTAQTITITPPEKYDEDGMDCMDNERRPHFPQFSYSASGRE

The inhibition is the drop in the measured response relative to a control, in per cent. The IC50 is the point on the concentration scale where inhibition reaches its midpoint. `O=P(O)(O)OC1C(OCc2ccccc2)C(OP(=O)(O)O)C(OP(=O)(O)O)C(OP(=O)(O)O)C1OP(=O)(O)O` (centres unmarked) [2-O-Bn-InsP5, 2-O-benzyl-myo-inositol 1,3,4,5,6-pentakisphosphate]: the inhibition at 1 µM stood at 10% at AKT3 (PKBγ) (1 µM compound); 16% at AMPK A1/B1/G1; 5% against BTK (1 µM compound); 3% on CDK5/p25 (1 µM compound); 15% against CHEK1 (CHK1) (1 µM compound); 79% at PDK1 (setting [1]). For the same compound, the inhibition at 1 µM against PRKACA (PKA) (1 µM compound) was 4%; against ROCK1 (1 µM compound), 7%; against RPS6KB1 (p70S6K) (1 µM compound), 17%; against CDK7/cyclin H/MNAT1 (1 µM compound) it was -2%. Also, the IC50 against PDK1 was found to be 26.5 nM. For the same compound, the “T-C (tumour growth delay)” value in the data set with PC3 xenografts (50 mg kg^-1, i.p., qdx15) is about 9 days. Also, the tumour growth entry in the data set with PC3 xenografts (50 mg kg^−1 daily i.p., significant from day 22) is given as “strong reduction in tumour growth”; in the data set on PC3 xenografts (12.5 and 25 mg kg^−1 daily i.p., vs untreated mice), “clearly decreased the growth of tumours”. In addition, the “body weight of the treated animals” value in the data set “Toxicity in mice” was “not different from the untreated mice”. For the same compound, in “Toxicity in mice”, the toxicity entry was “no evidence of toxicity”. For the same compound, in “Toxicity in mice” (relative to the active dose), the tolerability in vivo result is recorded as “well tolerated in vivo even at concentrations 15 times higher the active dose”. Further, the toxic effect entry in “Toxicity in mice” is “did not cause any major toxic effect”.
Take `O=P(O)(O)OC1C(O)C(OP(=O)(O)O)C(OP(=O)(O)O)C(OP(=O)(O)O)C1OP(=O)(O)O` (centres unmarked) [InsP5, inositol 1,3,4,5,6-pentakisphosphate]: the inhibition at 10 µM at AKT3 (PKBγ) (10 µM compound) came out at 10%; against BTK (10 µM compound), 8%; on CDK5/p25 (10 µM compound), 13%; at CHEK1 (CHK1) (10 µM compound) it was 17%; against PDK1 (10 µM compound, [ATP] 100 µM) it was 70%; at PRKACA (PKA) (10 µM compound) it was 5%. The inhibition at 10 µM against ROCK1 (10 µM compound) stood at 20%; on RPS6KB1 (p70S6K) (10 µM compound), 9%; against CDK7/cyclin H/MNAT1 (10 µM compound) it was 0%. The inhibition at 1 µM amounted to 4% at AMPK A1/B1/G1 and 71% against PDK1 (setting [1]). Moreover, the “% Inhibition Mean” value at PDK1 (setting [1]) amounted to 68%. The same compound yielded an IC50 at PDK1 of 613 nM. Moreover, in the data set on PC3 xenografts (up to 50 mg kg^−1 daily i.p.), the tumour growth result is “no effect”. In the data set “Toxicity in mice”, the “body weight of the treated animals” value was “not different from the untreated mice”. Also, in the data set “Toxicity in mice”, the toxicity result was “no evidence of toxicity”. Further, in the data set “Toxicity in mice”, the toxic effect entry is on record as “did not cause any major toxic effect”.
